Source: publication PMC10333884, “Large‐scale phosphomimetic screening identifies phospho‐modulated motif‐based protein interactions” (Molecular Systems Biology, 2023)
Blank lines part the entries; values can stand above or below the compound they belong to. Non-standard residues stand in square brackets, D forms with d. Residues, ends and D or L forms follow the SMILES beside them. pT = C[C@@H](OP(=O)(O)O)[C@H](N)C(=O)O; pS = N[C@@H](COP(=O)(O)O)C(=O)O

Columns and labels:
Format in all cases: binding
MAP1LC3B = biological target: T1, MAP1LC3B (Homo sapiens, UniProt Q9GZQ8); test: FP displacement assay, MAP1LC3B; details: read-out: KD values ± SEM
T1 construct: GST (cleaved yes); made in house; host or cells: Escherichia coli BL21-Gold(DE3)
Protocol: (§1) FP experiments were performed as described previously (Kliche et al, [2021]). Shortly, in order to monitor the binding event, FITC‐labelled peptides were used (excitation 495 nm, emission: 535 nm) and the FP signal was recorded in mP on a SpectraMax iD5 Multi‐Mode Microplate Reader (Molecular Devices) by measuring the emitted light in two angels. The measurements were performed at room temperature and prepared in nonbinding black half area 96‐well microplates (Corning®; 50 μl/well). For measuring direct binding, that is saturation curves, a 1:1 dilution series of protein domain (25 μl/well) was generated in 50 mM sodium phosphate buffer pH 7.4 and the measurement performed with 5 nM FITC‐labelled peptide (25 μl/well). The buffer‐corrected values were subsequently plotted with PRISM and fitted to the quadratic equation (Gianni et al, [2005]).
(§2) The 1:1 dilution series in this experiment was performed with the unlabelled peptide in 50 mM sodium phosphate buffer pH 7.4, so that each well‐contained unlabelled peptide (25 μl) at a certain concentration and pre‐formed complex (25 μl). The KD values of this indirectly monitored binding event were calculated as described previously (Nikolovska‐Coleska et al, [2004]). All measurements were at least in technical triplicates as well as biological duplicates when indicated. An amplitude shift between repeat measurements in the displacement experiments was occasionally observed due to variations in the protein preparations. If that was the case, the “active” protein concentration was back‐calculated according to the quadratic equation from the saturation curves performed in parallel. By comparing the active protein concentrations in the complex between different protein preparations, the amplitude was normalised.

GABARAPL2 = biological target: T2, GABARAPL2 (Homo sapiens, UniProt P60520); test: FP displacement assay, GABARAPL2; details: read-out: KD values ± SEM
T2 construct: GABARAPL2_ATG8__P60520_2_115; GST (cleaved yes); made in house; host or cells: Escherichia coli BL21-Gold(DE3)
Protocol: as §1, §2

MAP1LC3A = biological target: T3, MAP1LC3A (Homo sapiens, UniProt Q9H492); test: FP displacement assay, MAP1LC3A; details: for IC50: Fig 4B, MAP1LC3A ATG8, FP displacement, technical triplicates, read-out: IC50 values of displacement curves, with SEM; for Kd: read-out: KD values ± SEM
T3 construct: GST (cleaved yes); made in house; host or cells: Escherichia coli BL21-Gold(DE3)

GGA1 VHS [1] = biological target: T4, GGA1 VHS (Homo sapiens, UniProt Q9UJY5); test: FP displacement assay, GGA1 VHS
T4 construct: GGA1_VHS__Q9UJY5_1_157; GST (cleaved yes); made in house; host or cells: Escherichia coli BL21-Gold(DE3)
T4 sequence (Q9UJY5 1-157): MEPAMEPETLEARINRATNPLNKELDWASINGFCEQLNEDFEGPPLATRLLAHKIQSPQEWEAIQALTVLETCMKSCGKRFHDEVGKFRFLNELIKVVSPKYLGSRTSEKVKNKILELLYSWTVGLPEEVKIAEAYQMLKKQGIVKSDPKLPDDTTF
Protocol: as §1, §2

SNX27 PDZ = biological target: T5, SNX27 PDZ (Homo sapiens, UniProt Q96L92); test: FP displacement assay, SNX27 PDZ (MBP-tagged); details: for Kd: MBP-tagged domain, probe FITC-SYT16 5 nM, 50 mM sodium phosphate pH 7.4, room temperature, at least three technical replicates, read-out: KD values ± SEM
T5 construct: SNX27_PDZ__Q96L92_40_141; made in house; host or cells: Escherichia coli BL21-Gold(DE3)
Protocol: For FP, ITC and crystallisation, the tag was removed with the appropriate protease either on beads (0.1 mg/ml thrombin (Cytiva) in PBS, 1 mM dithiothreitol (DTT)) or by dialysis in cleavage buffer (Human Rhinovirus (HRV) 3C protease: 50 mM Tris–HCl pH 7.4, 150 mM NaCl, 1 mM β‐mercaptoethanol), both procedures were overnight. In case of HRV protease cleavage, the tag was separated from the target protein domain by reverse ion metal affinity chromatography using Ni^2+ beads for purification, whereas thrombin was removed using a benzamidine column (Cytiva). Affinity measurements for SNX27 PDZ were performed on the MBP‐tagged construct, as well as PIN1 WW domain on the GST‐tagged construct. For FP and ITC, proteins were dialysed in 50 mM sodium phosphate buffer pH 7.4, 1 mM DTT. For crystallisation of the NTD of clathrin, the protein was further purified by a S200 Sepharose column (Cytiva) using 20 mM Tris–HCl pH 7.4, 150 mM NaCl and 1 mM DTT.
as §1, §2

GGA1 VHS [2] = biological target: T4, GGA1 VHS; test: ITC, GGA1 VHS; design: Ka: unit not given beside the values; details: for Kd: ITC (iTC200), 50 mM sodium phosphate pH 7.4, 1 mM DTT, average of the runs, technical duplicates
[3] = ITC single run: date 200220, injection 1
[4] = ITC single run: date 200220, injection 2
[5] = FP displacement, probe FITC-IGF2R 5 nM, 50 mM sodium phosphate pH 7.4, room temperature, at least three technical replicates, read-out: KD values ± SEM

T2 sequence (P60520 2-115): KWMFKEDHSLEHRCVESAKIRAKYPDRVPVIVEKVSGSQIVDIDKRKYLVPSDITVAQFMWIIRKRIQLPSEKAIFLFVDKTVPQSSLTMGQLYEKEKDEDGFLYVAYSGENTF

Kd (GGA1 VHS [2]): 919 µM
Ka (GGA1 VHS [2]; [3]): 2030
Ka (GGA1 VHS [2]; [4]): 744
Kd (GGA1 VHS [1]; [5]): 420 ± 50 µM
SMILES: CC[C@H](C)[C@H](NC(=O)[C@H](CC(=O)O)NC(=O)[C@H](CC(=O)O)NC(=O)[C@H](CO)NC(=O)[C@@H](NC(=O)[C@@H]1CCCN1C(=O)[C@H](CO)NC(=O)[C@H](CCCCN)NC(=O)[C@H](Cc1ccc(O)cc1)NC(C)=O)[C@@H](C)O)C(=O)N[C@@H](CO)C(=O)N[C@@H](CC(C)C)C(=O)N[C@@H](CC(C)C)C(=O)N[C@@H](Cc1c[nH]cn1)C(=O)N[C@@H](CCC(=O)O)C(=O)N[C@@H](CO)C(=O)N[C@@H](CCC(N)=O)C(=O)N[C@@H](CO)C(N)=O [RNF11_6–21 wt] (Ac-YKSPTSDDISLLHESQS-NH2)

Kd (GGA1 VHS [1]; [5]): 96 ± 8 µM
SMILES: CC(=O)N[C@@H](CCC(=O)O)C(=O)N[C@H](C(=O)N[C@@H](Cc1ccc(O)cc1)C(=O)N[C@@H](Cc1ccc(O)cc1)C(=O)N[C@@H](CC(C)C)C(=O)N[C@@H](CO)C(=O)N[C@@H](CC(=O)O)C(=O)N[C@@H](CO)C(=O)N1CCC[C@H]1C(=O)N[C@@H](CC(C)C)C(=O)N[C@@H](CC(C)C)C(=O)NCC(=O)N1CCC[C@H]1C(=O)N1CCC[C@H]1C(=O)N[C@H](C(=O)NCC(N)=O)C(C)C)[C@@H](C)O [GTSE1_145–160 wt] (Ac-ETYYLSDSPLLGPPVG-NH2)

Kd (SNX27 PDZ): 300 ± 125 µM
SMILES: CSCC[C@H](NC(=O)CNC(C)=O)C(=O)N[C@H](C(=O)N[C@@H](CO)C(=O)N[C@@H](CO)C(=O)N[C@H](C(=O)N[C@@H](CO)C(=O)N[C@@H](Cc1ccccc1)C(=O)N[C@@H](CC(N)=O)C(=O)NCC(=O)NCC(=O)N[C@@H](Cc1ccc(O)cc1)C(N)=O)[C@@H](C)O)C(C)C [DAXX606–616 wt] (Ac-GMVSSTSFNGGY-NH2)

Kd (GGA1 VHS [2]): 27 µM
Ka (GGA1 VHS [2]; [3]): 35100
Ka (GGA1 VHS [2]; [4]): 38900
Kd (GGA1 VHS [1]; [5]): 31 ± 3 µM
SMILES: CC[C@H](C)[C@H](NC(=O)[C@H](CC(=O)O)NC(=O)[C@H](CC(=O)O)NC(=O)[C@H](CO)NC(=O)[C@@H](NC(=O)[C@@H]1CCCN1C(=O)[C@H](CO)NC(=O)[C@H](CCCCN)NC(=O)[C@H](Cc1ccc(O)cc1)NC(C)=O)[C@@H](C)O)C(=O)N[C@@H](COP(=O)(O)O)C(=O)N[C@@H](CC(C)C)C(=O)N[C@@H](CC(C)C)C(=O)N[C@@H](Cc1c[nH]cn1)C(=O)N[C@@H](CCC(=O)O)C(=O)N[C@@H](CO)C(=O)N[C@@H](CCC(N)=O)C(=O)N[C@@H](CO)C(N)=O [RNF11_6–21 pS] (Ac-YKSPTSDDI[pS]LLHESQS-NH2)

Kd (SNX27 PDZ): 111 ± 17 µM
SMILES: CC(=O)N[C@@H](CC(N)=O)C(=O)N[C@@H](CC(C)C)C(=O)N[C@@H](CC(C)C)C(=O)N[C@@H](CC(C)C)C(=O)N[C@@H](CCC(=O)O)C(=O)N[C@@H](CCCNC(=N)N)C(=O)N[C@@H](CC(=O)O)C(=O)N[C@H](C(=O)N[C@@H](CO)C(=O)N[C@@H](Cc1ccccc1)C(=O)N[C@H](C(=O)N[C@H](C(=O)N[C@@H](C)C(=O)N1CCC[C@H]1C(=O)N[C@@H](CC(=O)O)C(=O)N[C@@H](Cc1ccc(O)cc1)C(N)=O)C(C)C)[C@@H](C)O)[C@@H](C)O [CDC25C30–44 wt] (Ac-NLLLERDTSFTVAPDY-NH2)

IC50 (SNX27 PDZ; Fig 4B, SNX27 PDZ, technical triplicates, read-out: IC50 values of displacement curves, with SEM): 427 ± 39 µM
Kd (SNX27 PDZ): 96 ± 5 µM
SMILES: CSCC[C@H](NC(=O)CNC(C)=O)C(=O)N[C@H](C(=O)N[C@@H](CO)C(=O)N[C@@H](COP(=O)(O)O)C(=O)N[C@H](C(=O)N[C@@H](CO)C(=O)N[C@@H](Cc1ccccc1)C(=O)N[C@@H](CC(N)=O)C(=O)NCC(=O)NCC(=O)N[C@@H](Cc1ccc(O)cc1)C(N)=O)[C@@H](C)O)C(C)C [DAXX606–616 pS] (Ac-GMVS[pS]TSFNGGY-NH2)

Continued, compound first:

SMILES: CC(=O)N[C@@H](Cc1ccc(O)cc1)C(=O)N[C@@H](CCCCN)C(=O)N[C@@H](CCCCN)C(=O)N[C@@H](CCC(N)=O)C(=O)N[C@@H](CC(C)C)C(=O)N[C@@H](CCCCN)C(=O)N[C@@H](CCCNC(=N)N)C(=O)N[C@@H](Cc1ccccc1)C(=O)N[C@@H](CO)C(=O)N[C@H](C(=O)N[C@@H](CCC(=O)O)C(=O)N[C@@H](CCC(=O)O)C(=O)N[C@@H](Cc1ccccc1)C(=O)N[C@H](C(=O)N[C@@H](CC(C)C)C(=O)N[C@@H](CC(C)C)C(=O)O)C(C)C)[C@@H](C)O [ATG4C444–458 wt]
Kd (MAP1LC3B): 7.1 ± 0.6 µM
Kd (GABARAPL2): 0.8 ± 0.4 µM
IC50 (MAP1LC3A): 17 ± 1 µM
Kd (MAP1LC3A): 5.2 ± 0.2 µM

SMILES: CC(=O)N[C@@H](CC(=O)O)C(=O)N[C@@H](CC(C)C)C(=O)N[C@@H](CC(C)C)C(=O)N[C@H](C(=O)N[C@@H](CO)C(=O)N1CCC[C@H]1C(=O)N[C@@H](CC(=O)O)C(=O)N[C@H](C(=O)NCC(=O)N[C@@H](CC(C)C)C(=O)N[C@@H](CC(C)C)C(=O)N[C@@H](CCCCN)C(=O)N[C@@H](CC(C)C)C(=O)N[C@@H](C)C(=O)N[C@@H](CO)C(=O)N[C@@H](Cc1ccc(O)cc1)C(N)=O)C(C)C)[C@@H](C)O [JUN59–73 wt] (Ac-DLLTSPDVGLLKLASY-NH2)
Kd (GGA1 VHS [1]): 470 ± 50 µM

SMILES: CC(=O)N[C@@H](CC(N)=O)C(=O)N[C@@H](CC(C)C)C(=O)N[C@@H](CC(C)C)C(=O)N[C@@H](CC(C)C)C(=O)N[C@@H](CCC(=O)O)C(=O)N[C@@H](CCCNC(=N)N)C(=O)N[C@@H](CC(=O)O)C(=O)N[C@H](C(=O)N[C@@H](COP(=O)(O)O)C(=O)N[C@@H](Cc1ccccc1)C(=O)N[C@H](C(=O)N[C@H](C(=O)N[C@@H](C)C(=O)N1CCC[C@H]1C(=O)N[C@@H](CC(=O)O)C(=O)N[C@@H](Cc1ccc(O)cc1)C(N)=O)C(C)C)[C@@H](C)O)[C@@H](C)O [CDC25C30–44 pS] (Ac-NLLLERDT[pS]FTVAPDY-NH2)
Kd (SNX27 PDZ): 395 ± 63 µM

SMILES: CC(=O)N[C@@H](Cc1ccc(O)cc1)C(=O)N[C@@H](CCCCN)C(=O)N[C@@H](CCCCN)C(=O)N[C@@H](CCC(N)=O)C(=O)N[C@@H](CC(C)C)C(=O)N[C@@H](CCCCN)C(=O)N[C@@H](CCCNC(=N)N)C(=O)N[C@@H](Cc1ccccc1)C(=O)N[C@@H](COP(=O)(O)O)C(=O)N[C@H](C(=O)N[C@@H](CCC(=O)O)C(=O)N[C@@H](CCC(=O)O)C(=O)N[C@@H](Cc1ccccc1)C(=O)N[C@H](C(=O)N[C@@H](CC(C)C)C(=O)N[C@@H](CC(C)C)C(=O)O)C(C)C)[C@@H](C)O [ATG4C444–458 pS]
Kd (MAP1LC3B): 1.9 ± 0.3 µM
Kd (GABARAPL2): 0.1 ± 0.2 µM
IC50 (MAP1LC3A): 5.5 ± 0.7 µM
Kd (MAP1LC3A): 1.3 ± 0.1 µM

SMILES: CC(=O)N[C@@H](CC(=O)O)C(=O)N[C@@H](CC(C)C)C(=O)N[C@@H](CC(C)C)C(=O)N[C@H](C(=O)N[C@@H](CO)C(=O)N1CCC[C@H]1C(=O)N[C@@H](CC(=O)O)C(=O)N[C@H](C(=O)NCC(=O)N[C@@H](CC(C)C)C(=O)N[C@@H](CC(C)C)C(=O)N[C@@H](CCCCN)C(=O)N[C@@H](CC(C)C)C(=O)N[C@@H](C)C(=O)N[C@@H](CO)C(=O)N[C@@H](Cc1ccc(O)cc1)C(N)=O)C(C)C)[C@@H](C)OP(=O)(O)O [JUN59–73 pS] (Ac-DLL[pT]SPDVGLLKLASY-NH2)
Kd (GGA1 VHS [1]): 1900 µM
